Reference: publication PMC4490784, “Compensatory induction of MYC expression by sustained CDK9 inhibition via a BRD4-dependent mechanism” (eLife, 2015)

Experiments:
Assay in all cases: KINOMEscan binding assay
ACVR2A = biological target: T1, ACVR2A (Homo sapiens, UniProt P27037); conditions: read-out: % Retention on Solid Support
T1 construct: purchased DiscoveRx KINOMEscan
Method: (§1) As there are no commercial or in-house kinase assays available for CDK3, CDK5, CDK11 and CDK13, the inhibitory abilities of i-CDK9 toward these CDKs were thus evaluated in the DiscoveRx KINOMEscan assay, which is based on a proprietary active site-directed competition-binding platform ([Fabian et al., 2005]).
(§2) The inhibitory activity of i-CDK9 for CDK1-CycB (Upstate/Millipore), CDK2-CycA (Invitrogen), CDK4-CycD1 (Novartis), CDK7-CycH-MAT1 (Invitrogen), and CDK9-CycT1 (Invitrogen) was assessed in the AlphaScreen (PerkinElmer, Inc)-based kinase assay developed at Novartis. Briefly, each CDK–cyclin pair was pre-incubated with i-CDK9 for 15 min, followed by addition of kinase substrates (ELK for CDK1 and CDK2, RB for CDK4, and CDK7tide for CDK7 and CDK9). The mixture was incubated at room temperature for additional 4–5 hr. The reaction was stopped and read on Envision (PerkinElmer, Inc). Selectivity against a large panel of over 400 kinases was evaluated using the KINOMEscan platform (DiscoveRx, CA) employing a proprietary active site-directed competition binding assay ([Fabian et al., 2005]). The assay was conducted at two different concentrations of i-CDK9 (1 and 10 µM) by DiscoveRx.

EPHA8 = biological target: T2, EPHA8 (Homo sapiens, UniProt P29322); conditions: read-out: % Retention on Solid Support
T2 construct: purchased DiscoveRx KINOMEscan
T2 sequence (P29322 28-1005): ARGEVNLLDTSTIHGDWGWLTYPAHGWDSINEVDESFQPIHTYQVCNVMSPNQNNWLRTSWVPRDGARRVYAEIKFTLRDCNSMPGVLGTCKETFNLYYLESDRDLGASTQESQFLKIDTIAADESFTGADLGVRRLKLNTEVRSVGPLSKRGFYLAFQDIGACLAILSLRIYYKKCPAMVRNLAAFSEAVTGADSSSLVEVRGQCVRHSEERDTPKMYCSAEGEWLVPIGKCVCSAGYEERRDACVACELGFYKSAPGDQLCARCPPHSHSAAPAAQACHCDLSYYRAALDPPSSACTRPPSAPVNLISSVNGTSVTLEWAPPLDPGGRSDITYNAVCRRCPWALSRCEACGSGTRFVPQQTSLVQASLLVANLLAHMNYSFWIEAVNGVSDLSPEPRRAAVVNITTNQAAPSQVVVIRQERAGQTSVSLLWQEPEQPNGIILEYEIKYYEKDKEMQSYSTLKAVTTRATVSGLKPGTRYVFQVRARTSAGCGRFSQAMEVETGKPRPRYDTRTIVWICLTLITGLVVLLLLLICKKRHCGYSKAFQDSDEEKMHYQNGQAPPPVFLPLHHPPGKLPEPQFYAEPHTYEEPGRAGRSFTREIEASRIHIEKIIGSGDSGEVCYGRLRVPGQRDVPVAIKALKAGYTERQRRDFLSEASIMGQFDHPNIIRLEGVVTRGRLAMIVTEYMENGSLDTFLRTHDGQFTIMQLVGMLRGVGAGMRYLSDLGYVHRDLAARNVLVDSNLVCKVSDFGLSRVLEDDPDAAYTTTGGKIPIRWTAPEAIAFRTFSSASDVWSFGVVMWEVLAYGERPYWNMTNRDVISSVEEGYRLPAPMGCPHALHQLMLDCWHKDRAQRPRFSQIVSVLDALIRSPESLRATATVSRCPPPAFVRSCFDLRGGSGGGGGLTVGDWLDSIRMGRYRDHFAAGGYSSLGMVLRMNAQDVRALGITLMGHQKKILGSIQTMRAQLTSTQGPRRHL
Method: as §1, §2

OSR1 = biological target: T3, OSR1 (Homo sapiens, UniProt O95747); conditions: read-out: % Retention on Solid Support
T3 construct: purchased DiscoveRx KINOMEscan
T3 sequence (O95747 whole entry): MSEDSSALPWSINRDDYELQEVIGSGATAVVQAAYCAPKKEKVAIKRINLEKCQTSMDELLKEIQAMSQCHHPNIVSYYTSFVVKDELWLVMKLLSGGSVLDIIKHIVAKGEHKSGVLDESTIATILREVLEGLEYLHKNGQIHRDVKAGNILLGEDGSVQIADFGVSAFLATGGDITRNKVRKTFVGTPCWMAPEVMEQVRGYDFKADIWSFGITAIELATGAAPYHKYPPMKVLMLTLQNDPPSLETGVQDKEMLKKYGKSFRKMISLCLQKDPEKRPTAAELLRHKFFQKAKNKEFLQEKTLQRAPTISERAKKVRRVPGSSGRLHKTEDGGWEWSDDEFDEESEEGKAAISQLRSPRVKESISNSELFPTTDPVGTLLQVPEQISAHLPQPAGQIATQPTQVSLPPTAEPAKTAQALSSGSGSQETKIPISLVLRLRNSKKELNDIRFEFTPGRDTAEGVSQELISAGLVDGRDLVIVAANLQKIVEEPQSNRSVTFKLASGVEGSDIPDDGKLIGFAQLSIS
Method: as §1, §2

CAMK1 = biological target: T4, CAMK1 (Homo sapiens, UniProt Q14012); conditions: read-out: % Retention on Solid Support
T4 construct: purchased DiscoveRx KINOMEscan
Method: as §1, §2

MAP3K4 = biological target: T5, MAP3K4 (Homo sapiens, UniProt Q9Y6R4); conditions: read-out: % Retention on Solid Support
T5 construct: purchased DiscoveRx KINOMEscan
Method: as §1, §2

PIK4CB = biological target: T6, PIK4CB (Homo sapiens, UniProt Q9UBF8); conditions: read-out: % Retention on Solid Support
T6 construct: purchased DiscoveRx KINOMEscan
Method: as §1, §2

ERK4 = biological target: T7, ERK4 (Homo sapiens, UniProt P31152); conditions: read-out: % Retention on Solid Support
T7 construct: purchased DiscoveRx KINOMEscan
Method: as §1, §2

ANKK1 = biological target: T8, ANKK1 (Homo sapiens, UniProt Q8NFD2); conditions: read-out: % Retention on Solid Support
T8 construct: purchased DiscoveRx KINOMEscan
Method: as §1, §2

SRC = biological target: T9, SRC (Homo sapiens, UniProt P12931); conditions: read-out: % Retention on Solid Support
T9 construct: purchased DiscoveRx KINOMEscan
Method: as §1, §2

EGFR(L858R,T790M) = biological target: T10, EGFR(L858R,T790M) (Homo sapiens, UniProt P00533, L858R/T790M)
T10 construct: purchased DiscoveRx KINOMEscan
Method: as §1, §2

[1] = biological target: T11, ABL1(F317L)-phosphorylated (Homo sapiens, UniProt P00519, F317L); conditions: 1 µM i-CDK9; read-out: % Retention on Solid Support
T11 construct: purchased DiscoveRx KINOMEscan
Method: as §1, §2

EPHB6 = biological target: T12, EPHB6 (Homo sapiens, UniProt O15197); conditions: read-out: % Retention on Solid Support
T12 construct: purchased DiscoveRx KINOMEscan
Method: as §1, §2

KIT = biological target: T13, KIT (Homo sapiens, UniProt P10721); conditions: read-out: % Retention on Solid Support
T13 construct: purchased DiscoveRx KINOMEscan
T13 sequence (P10721 26-976): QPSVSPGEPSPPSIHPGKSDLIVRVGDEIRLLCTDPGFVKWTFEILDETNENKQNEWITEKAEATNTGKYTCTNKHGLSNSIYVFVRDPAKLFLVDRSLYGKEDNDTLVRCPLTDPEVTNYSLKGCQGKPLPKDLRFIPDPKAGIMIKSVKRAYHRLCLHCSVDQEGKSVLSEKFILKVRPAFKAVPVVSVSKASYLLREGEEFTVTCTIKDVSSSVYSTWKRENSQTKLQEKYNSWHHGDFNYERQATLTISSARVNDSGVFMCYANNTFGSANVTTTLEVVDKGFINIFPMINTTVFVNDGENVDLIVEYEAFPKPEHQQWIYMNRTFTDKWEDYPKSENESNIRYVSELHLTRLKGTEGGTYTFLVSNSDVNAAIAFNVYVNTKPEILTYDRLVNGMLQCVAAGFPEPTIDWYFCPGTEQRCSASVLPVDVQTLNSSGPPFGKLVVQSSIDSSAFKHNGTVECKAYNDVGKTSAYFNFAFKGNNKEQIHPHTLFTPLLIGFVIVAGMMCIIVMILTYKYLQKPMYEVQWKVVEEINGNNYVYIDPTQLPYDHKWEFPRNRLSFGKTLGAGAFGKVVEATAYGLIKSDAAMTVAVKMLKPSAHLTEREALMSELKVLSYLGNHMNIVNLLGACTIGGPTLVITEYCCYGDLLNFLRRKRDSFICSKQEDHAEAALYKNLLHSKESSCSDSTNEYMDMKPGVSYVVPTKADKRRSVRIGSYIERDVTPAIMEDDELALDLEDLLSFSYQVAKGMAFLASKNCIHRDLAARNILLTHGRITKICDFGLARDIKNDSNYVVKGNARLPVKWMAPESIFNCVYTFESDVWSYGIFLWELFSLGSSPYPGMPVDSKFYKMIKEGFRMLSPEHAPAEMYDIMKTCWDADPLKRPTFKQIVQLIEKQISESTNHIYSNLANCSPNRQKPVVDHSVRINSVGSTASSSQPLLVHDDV
Method: as §1, §2

EGFR(S752-I759del) = biological target: T14, EGFR(S752-I759del) (Homo sapiens, UniProt P00533, DEL752-759)
T14 construct: purchased DiscoveRx KINOMEscan
Method: as §1, §2

MST1 = biological target: T15, MST1 (Homo sapiens, UniProt Q13043)
T15 construct: purchased DiscoveRx KINOMEscan
Method: as §1, §2

AMPK-alpha1 = biological target: T16, AMPK-alpha1 (Homo sapiens, UniProt Q13131); conditions: read-out: % Retention on Solid Support
T16 construct: purchased DiscoveRx KINOMEscan
Method: as §1, §2

p38-alpha = biological target: T17, p38-alpha (Homo sapiens, UniProt Q16539)
T17 construct: purchased DiscoveRx KINOMEscan
T17 sequence (Q16539 whole entry): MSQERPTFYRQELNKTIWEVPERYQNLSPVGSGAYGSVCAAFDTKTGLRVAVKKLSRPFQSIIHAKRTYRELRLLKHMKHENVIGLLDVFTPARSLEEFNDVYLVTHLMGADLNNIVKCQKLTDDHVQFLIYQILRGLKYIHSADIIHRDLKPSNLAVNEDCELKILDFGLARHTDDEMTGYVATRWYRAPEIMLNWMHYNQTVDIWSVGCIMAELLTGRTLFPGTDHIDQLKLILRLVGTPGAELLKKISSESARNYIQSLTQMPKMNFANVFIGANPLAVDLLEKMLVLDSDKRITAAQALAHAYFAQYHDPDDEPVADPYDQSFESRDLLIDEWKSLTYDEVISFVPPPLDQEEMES
Method: as §1, §2

CAMKK1 = biological target: T18, CAMKK1 (Homo sapiens, UniProt Q8N5S9); conditions: read-out: % Retention on Solid Support
T18 construct: purchased DiscoveRx KINOMEscan
T18 sequence (Q8N5S9 whole entry): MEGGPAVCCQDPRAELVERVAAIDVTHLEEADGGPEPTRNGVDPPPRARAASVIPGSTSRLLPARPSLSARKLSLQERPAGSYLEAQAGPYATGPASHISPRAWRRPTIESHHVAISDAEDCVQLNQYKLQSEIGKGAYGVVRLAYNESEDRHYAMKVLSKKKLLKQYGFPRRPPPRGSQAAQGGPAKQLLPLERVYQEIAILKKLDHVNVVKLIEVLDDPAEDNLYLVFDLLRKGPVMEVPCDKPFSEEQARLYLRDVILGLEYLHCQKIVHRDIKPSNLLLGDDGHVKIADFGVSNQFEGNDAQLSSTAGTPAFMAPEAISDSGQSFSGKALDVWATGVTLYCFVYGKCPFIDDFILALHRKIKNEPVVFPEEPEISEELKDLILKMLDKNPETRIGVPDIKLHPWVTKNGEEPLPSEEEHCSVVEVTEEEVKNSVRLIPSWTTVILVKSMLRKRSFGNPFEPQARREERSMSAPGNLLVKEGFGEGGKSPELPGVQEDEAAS
Method: as §1, §2

PRKCI = biological target: T19, PRKCI (Homo sapiens, UniProt P41743); conditions: 1 µM i-CDK9; read-out: % Retention on Solid Support
T19 construct: purchased DiscoveRx KINOMEscan
Method: as §1, §2

AAK1 = biological target: T20, AAK1 (Homo sapiens, UniProt Q2M2I8); conditions: read-out: % Retention on Solid Support
T20 construct: purchased DiscoveRx KINOMEscan
T20 sequence (Q2M2I8 whole entry): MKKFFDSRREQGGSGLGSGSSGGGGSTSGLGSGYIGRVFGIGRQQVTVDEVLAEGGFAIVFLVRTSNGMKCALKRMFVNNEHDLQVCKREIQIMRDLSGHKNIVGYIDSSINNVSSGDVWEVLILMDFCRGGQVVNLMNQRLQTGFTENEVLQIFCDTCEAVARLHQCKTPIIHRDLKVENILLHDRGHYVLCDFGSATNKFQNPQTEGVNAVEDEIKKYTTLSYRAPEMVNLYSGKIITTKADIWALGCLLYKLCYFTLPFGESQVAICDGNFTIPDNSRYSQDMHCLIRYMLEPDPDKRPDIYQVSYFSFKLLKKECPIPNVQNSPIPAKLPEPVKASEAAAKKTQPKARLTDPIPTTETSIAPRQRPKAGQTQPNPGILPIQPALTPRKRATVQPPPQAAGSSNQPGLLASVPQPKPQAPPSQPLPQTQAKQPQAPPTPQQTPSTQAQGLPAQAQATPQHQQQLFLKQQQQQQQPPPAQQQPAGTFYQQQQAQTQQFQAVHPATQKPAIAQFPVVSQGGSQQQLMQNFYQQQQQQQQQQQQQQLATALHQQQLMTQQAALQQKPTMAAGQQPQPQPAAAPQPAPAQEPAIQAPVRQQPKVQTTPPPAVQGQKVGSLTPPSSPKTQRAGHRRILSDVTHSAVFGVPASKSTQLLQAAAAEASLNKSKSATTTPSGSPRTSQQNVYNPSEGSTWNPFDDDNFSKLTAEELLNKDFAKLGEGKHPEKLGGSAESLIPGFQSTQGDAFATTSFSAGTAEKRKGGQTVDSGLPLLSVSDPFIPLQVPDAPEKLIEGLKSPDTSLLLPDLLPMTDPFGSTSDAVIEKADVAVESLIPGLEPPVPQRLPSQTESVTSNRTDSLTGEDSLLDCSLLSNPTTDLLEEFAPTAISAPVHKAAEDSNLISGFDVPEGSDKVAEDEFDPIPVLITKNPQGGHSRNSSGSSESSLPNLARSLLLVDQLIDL
Method: as §1, §2

CHEK2 = biological target: T21, CHEK2 (Homo sapiens, UniProt O96017); conditions: read-out: % Retention on Solid Support
T21 construct: purchased DiscoveRx KINOMEscan
Method: as §1, §2

AURKA = biological target: T22, AURKA (Homo sapiens, UniProt O14965); conditions: read-out: % Retention on Solid Support
T22 construct: purchased DiscoveRx KINOMEscan
T22 sequence (O14965 1-403): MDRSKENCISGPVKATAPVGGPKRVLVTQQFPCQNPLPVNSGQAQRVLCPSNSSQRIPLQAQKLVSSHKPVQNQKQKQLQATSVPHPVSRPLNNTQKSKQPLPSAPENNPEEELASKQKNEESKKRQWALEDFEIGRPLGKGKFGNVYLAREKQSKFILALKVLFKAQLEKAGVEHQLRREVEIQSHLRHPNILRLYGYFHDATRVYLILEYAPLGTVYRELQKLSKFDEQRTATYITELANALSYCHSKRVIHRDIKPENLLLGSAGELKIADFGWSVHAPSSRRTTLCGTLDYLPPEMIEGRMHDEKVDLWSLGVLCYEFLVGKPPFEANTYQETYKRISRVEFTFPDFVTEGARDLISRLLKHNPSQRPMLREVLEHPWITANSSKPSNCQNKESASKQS
Method: as §1, §2

[2] = biological target: T23, RSK3(Kin.Dom.2-C-terminal) (Homo sapiens, UniProt Q15349); conditions: read-out: % Retention on Solid Support
T23 construct: RSK3(Kin.Dom.2-C-terminal); purchased DiscoveRx KINOMEscan
Method: as §1, §2

BRSK1 = biological target: T24, BRSK1 (Homo sapiens, UniProt Q8TDC3); conditions: read-out: % Retention on Solid Support
T24 construct: purchased DiscoveRx KINOMEscan
Method: as §1, §2

MAK = biological target: T25, MAK (Homo sapiens, UniProt P20794); conditions: read-out: % Retention on Solid Support
T25 construct: purchased DiscoveRx KINOMEscan
Method: as §1, §2

T1 sequence (P27037 20-513): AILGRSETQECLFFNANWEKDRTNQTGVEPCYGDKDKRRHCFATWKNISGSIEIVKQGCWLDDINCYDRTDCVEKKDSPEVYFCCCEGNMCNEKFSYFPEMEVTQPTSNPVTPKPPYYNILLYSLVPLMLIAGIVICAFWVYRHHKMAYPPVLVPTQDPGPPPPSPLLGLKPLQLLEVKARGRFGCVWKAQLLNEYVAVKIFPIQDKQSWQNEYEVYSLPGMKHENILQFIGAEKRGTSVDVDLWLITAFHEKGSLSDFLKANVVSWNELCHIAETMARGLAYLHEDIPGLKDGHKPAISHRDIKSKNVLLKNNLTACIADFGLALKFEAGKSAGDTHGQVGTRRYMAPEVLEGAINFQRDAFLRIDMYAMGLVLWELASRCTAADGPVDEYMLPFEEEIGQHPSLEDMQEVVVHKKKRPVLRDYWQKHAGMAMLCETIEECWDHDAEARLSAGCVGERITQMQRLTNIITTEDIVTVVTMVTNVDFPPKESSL

## N[C@H]1CC[C@H](Nc2cc(-c3cccc(NCc4cccc(F)c4)n3)c(Cl)cn2)CC1 [i-CDK9, N2′-(trans-4-aminocyclohexyl)-5′-chloro-N6-(3-fluorobenzyl)-2,4′-bipyridine-2′,6-diamine]
ACVR2A; 1 µM i-CDK9
  remaining binding at 1 µM: 98%
ACVR2A; 10 µM i-CDK9
  remaining binding at 10 µM: 91%
EPHA8; 1 µM i-CDK9
  remaining binding at 1 µM: 100%
EPHA8; 10 µM i-CDK9
  remaining binding at 10 µM: 100%
OSR1; 1 µM i-CDK9
  remaining binding at 1 µM: 97%
OSR1; 10 µM i-CDK9
  remaining binding at 10 µM: 85%
CAMK1; 1 µM i-CDK9
  remaining binding at 1 µM: 96%
CAMK1; 10 µM i-CDK9
  remaining binding at 10 µM: 100%
MAP3K4; 1 µM i-CDK9
  remaining binding at 1 µM: 87%
MAP3K4; 10 µM i-CDK9
  remaining binding at 10 µM: 96%
PIK4CB; 1 µM i-CDK9
  remaining binding at 1 µM: 29%
PIK4CB; 10 µM i-CDK9
  remaining binding at 10 µM: 84%
ERK4; 1 µM i-CDK9
  remaining binding at 1 µM: 100%
ERK4; 10 µM i-CDK9
  remaining binding at 10 µM: 100%
ANKK1; 1 µM i-CDK9
  remaining binding at 1 µM: 100%
ANKK1; 10 µM i-CDK9
  remaining binding at 10 µM: 100%
SRC; 1 µM i-CDK9
  remaining binding at 1 µM: 87%
SRC; 10 µM i-CDK9
  remaining binding at 10 µM: 100%
EGFR(L858R,T790M); 1 µM i-CDK9
  % Retention on Solid Support: 100%
EGFR(L858R,T790M); 10 µM i-CDK9
  % Retention on Solid Support: 89%
[1]
  remaining binding at 1 µM: 100%
EPHB6; 1 µM i-CDK9
  remaining binding at 1 µM: 47%
EPHB6; 10 µM i-CDK9
  remaining binding at 10 µM: 74%
KIT; 1 µM i-CDK9
  remaining binding at 1 µM: 91%
KIT; 10 µM i-CDK9
  remaining binding at 10 µM: 100%
EGFR(S752-I759del); 1 µM i-CDK9
  % Retention on Solid Support: 77%
EGFR(S752-I759del); 10 µM i-CDK9
  % Retention on Solid Support: 53%
MST1; 1 µM i-CDK9
  % Retention on Solid Support: 100%
MST1; 10 µM i-CDK9
  % Retention on Solid Support: 100%
AMPK-alpha1; 1 µM i-CDK9
  remaining binding at 1 µM: 84%
AMPK-alpha1; 10 µM i-CDK9
  remaining binding at 10 µM: 93%
p38-alpha; 1 µM i-CDK9
  % Retention on Solid Support: 85%
p38-alpha; 10 µM i-CDK9
  % Retention on Solid Support: 100%
CAMKK1; 1 µM i-CDK9
  remaining binding at 1 µM: 100%
CAMKK1; 10 µM i-CDK9
  remaining binding at 10 µM: 100%
PRKCI
  remaining binding at 1 µM: 100%
AAK1; 1 µM i-CDK9
  remaining binding at 1 µM: 100%
AAK1; 10 µM i-CDK9
  remaining binding at 10 µM: 100%
CHEK2; 1 µM i-CDK9
  remaining binding at 1 µM: 98%
CHEK2; 10 µM i-CDK9
  remaining binding at 10 µM: 100%
AURKA; 1 µM i-CDK9
  remaining binding at 1 µM: 92%
AURKA; 10 µM i-CDK9
  remaining binding at 10 µM: 97%
[2]; 1 µM i-CDK9
  remaining binding at 1 µM: 73%
[2]; 10 µM i-CDK9
  remaining binding at 10 µM: 100%
BRSK1; 1 µM i-CDK9
  remaining binding at 1 µM: 100%
BRSK1; 10 µM i-CDK9
  remaining binding at 10 µM: 89%
MAK; 1 µM i-CDK9
  remaining binding at 1 µM: 100%
MAK; 10 µM i-CDK9
  remaining binding at 10 µM: 30%
